According to PubChem BioAssay AID179 (DTP/NCI, 2004):
pEC50, pIC50: −log10 of the molar value. Calls of active or inactive are those of the source.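 How the source made its calls: active means compounds giving half or more protection of infected cells from virus-caused growth loss, again on retest; inactive means the rest.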

System: CEM cells HIV-1 protection, formazan growth assay
Test: NCI AIDS Antiviral Assay
Conditions: for pIC50: measured here: growth of uninfected CEM cells
Method in brief: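 Steps: treat uninfected and HIV-1-infected human CEM cells at five drug levels; quantify growth by soluble formazan; retest any compound reaching 50% protection; classify actives from the retest.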

SMILES	pEC50	pIC50	outcome
CCCc1cc(=O)oc2c3c(c4c(c12)OC(C)(C)[C@@H](O)[C@H]4O)O[C@@H](C)[C@H](C)[C@@H]3O	< 3.70	3.87	
Cc1cccc(N2C(=O)C3c4[nH]c5ccc(C)cc5c4C4CCC(C(C)(C)C)CC4C3C2=O)c1 (stereo unspecified)	< 3.70	5.07	
CCOC(=O)C(C(=O)c1ccccc1)C(=O)c1ccccc1	< 4.34	< 4.34	
Cc1ccc(-c2c3nc(c(-c4ccc(C)cc4)c4ccc([nH]4)c(-c4ccc(OCC5COC(C)(C)O5)cc4)c4nc(c(-c5ccc(C)cc5)c5ccc2[nH]5)C=C4)C=C3)cc1 (stereo unspecified)	< 4.00	< 4.00	
CCOC(=O)c1cc2c3ccn(Cc4ccccc4)c3c3c(C)[nH]oc3c2n1	4.58	< 3.70	
O=S(CCc1ccccc1)Nc1ccccc1 (stereo unspecified)	< 3.70	< 3.70	
CCOP(=O)(OCC)C(C)(C)OC(=O)NC#N	< 3.70	< 3.70	
COc1cccc(Nc2nc(N)nc(N)c2N)c1	< 3.70	4.58	
Cc1cc(N(CCC#N)CCC#N)ccc1/C=C1N=C(/C=C\c2ccccc2)N(c2ccc(C(=O)O)cc2)C\1=O	< 4.87	< 4.87	
COc1ccc(-c2c(C(=O)Nc3ccccc3)c(-c3ccccc3)n(C3OC(CO)C(O)C(O)C3O)c(=S)c2C#N)cc1 (stereo unspecified)	< 3.70	3.97	
CCCOC(=O)C(F)C(Br)C(=O)OCCC (stereo unspecified)	< 3.70	5.50	
C/C(=N\Nc1ccc2ccccc2n1)c1ccccn1	< 6.70	6.96	
CN(C)c1ccc(/C=C(\C#N)c2ccc(Cl)cc2Cl)cc1	< 3.70	5.47	
CCCCCCCCCC(=O)CC(=O)c1c(O)cccc1O	< 4.63	< 4.63	
CN(C)c1ccc(-c2ccc(N(C)C)c3n[se]nc23)c2n[se]nc12	< 3.70	< 3.70	
NCC(=O)NC1OC(COP(=O)(O)O)C(O)C1O (stereo unspecified)	< 3.70	< 3.70	
CC(C)/C(Cl)=N\OC(=O)Nc1cccc(F)c1	< 3.70	5.01	
O=C1CCSC2=C1SCc1sccc12			inactive
c1cnc2c(c1)Oc1nc3ccccc3nc1S2	< 4.04	4.84	
c1ccc(N=c2sc3ccccc3nc2Nc2ccccc2)cc1	< 3.70	3.91	
COC(=O)/C=C(\C)C(=O)N(C)c1ccccc1I	< 3.70	3.91	
COCN1C(=O)[C@@H]2CCCN2C(=O)c2ccc([N+](=O)[O-])cc21	< 3.70	< 3.70	

SMILES	pEC50	pIC50	outcome
COC(=O)C1CC2(CCC1=O)Cc1ccccc1C2=O (stereo unspecified)	< 3.70	4.14	
COC(=O)CCC12CCC(=O)C1[C@@H](C(=O)OC)C[C@H]2C(=O)OC (stereo partly specified)			inactive
CC1=CC(=O)/C(=C/n2c(=S)[nH]c3cc(C)ccc32)C(=O)O1	< 3.70	3.71	
O=C1C=CC(=O)C2C1Cc1ccccc1C2c1ccccc1 (stereo unspecified)			inactive
CCCCCCCCCCCCCCCCC(=O)NCC(=O)NCC(=O)NC(Cc1ccccc1)C(=O)Oc1ccc([N+](=O)[O-])cc1 (stereo unspecified)	< 3.70	4.74	
Cc1cc2c(cc1C)[n+](=O)c(C(=O)CC(=O)C(=O)Nc1ccccc1C(C)C)c(C)n2[O-]	< 3.24	< 3.24	
CSc1nc2c(n1-c1ccccc1)C(=O)C(OS(=O)(=O)c1ccccc1)C(=O)N2 (stereo unspecified)	< 3.70	< 3.70	
CC12CCC(CC1)C(C)(C)N=C(N)S2	< 3.70	4.25	
O=C(C#CP(=O)(O)c1ccccc1)c1ccccc1	< 3.70	< 3.70	
CC(C#N)NCc1ccc(C(C)NC(C)C#N)cc1 (stereo unspecified)	< 3.70	< 3.70	
Cc1cn(C2CC=C(CO)CC2)c(=O)[nH]c1=O (stereo unspecified)	< 2.98	< 2.98	
COc1ccc(/C=C(\C#N)C(=O)c2ccccc2)cc1	< 4.01	4.25	
COC(=O)C(C)(C)NC(=O)C(Cc1ccccc1)Nc1ncnc2c1ncn2-c1ccc(OC)cc1 (stereo unspecified)		4.25	inactive
O=c1[nH]c(=O)n(C2OC(CO)C(O)C2O)c2nccnc12 (stereo unspecified)	< 3.70	< 3.70	
O=C(Nc1cccc(Cl)c1)C(=O)C(C(=O)c1ccc2ccccc2c1)C1OC(=O)c2ccccc21 (stereo unspecified)	< 4.13	4.47	
COC(=O)c1cc(C(=O)OC)c2c3[nH]cnc3ncn2c1=O	< 3.70	< 3.70	
c1ccc2oc(-c3ccc(-c4nc5ccccc5o4)c4c3CC4)nc2c1	< 4.30	< 4.30	
N[C@@H](CCC(=O)NCP(=O)(O)O)C(=O)O	< 3.70	< 3.70	
Cn1c(=Nc2ccc(Cl)cc2)sc2ccccc21	< 3.70	4.49	
CCCCCCCCCCCCCCCCCCCCCCCCCCCCCC=C(c1cc(Cl)c(O)c(C(=O)O)c1)c1cc(Cl)c(O)c(C(=O)O)c1	4.91	3.65	
COc1cc(CCCC(O)COc2cccc3c2C2(O)CCCCCC32)cc(OC)c1 (stereo unspecified)	< 3.70	4.90	
C[C@@H]1OCC(O)C([C@H]2OC(c3ccccc3)=N[C@H]2CO)O1 (stereo partly specified)	< 3.70	< 3.70	

SMILES	pEC50	pIC50	outcome
CC(=O)Nc1ccccc1-c1ccccc1NC(C)=O			inactive
COc1ccc(-n2c(C)nc3ccc(NC(=S)Nc4ccccc4)cc3c2=O)cc1	< 3.70	< 3.70	
Cc1ccc(N(C(=O)CC(=O)NN)C(=O)c2ccccc2Cl)cc1	< 3.57	< 3.57	
c1ccc(CSC(SCc2ccccc2)c2ccccc2)cc1	< 3.70	< 3.70	
CCCC(=O)OC1C(OC(=O)CCC)C(OC(=O)CCC)C(OC(=O)CCC)C(OC(=O)CCC)C1OC(=O)CCC (stereo unspecified)	< 3.38	< 3.38	
CN1C[C@H]2[C@@H](C1=O)[C@H](c1ccccc1)ON2C	< 3.70	< 3.70	
N#CC1(Cl)CC2CC1C1N=NN(c3ccccc3)C21 (stereo unspecified)	< 3.70	< 3.70	
CC(=O)C(N=Nc1nc2ccc(Cl)cc2[nH]1)C(C)=O	< 3.70	4.54	
CN(C)C(=S)/N=c1\ss/c(=N\C(=S)N(C)C)n1-c1ccccc1	< 3.70	3.72	
CC1(C)CC(=O)C2(CC(CSc3ccccc3)C(CS(=O)(=O)c3ccccc3)C2)C(=O)C1 (stereo unspecified)	< 3.70	< 3.70	
CCOC(=O)C1Nc2ccc([N+](=O)[O-])cc2[C@H]2OCC[C@@H]12 (stereo partly specified)	< 3.35	< 3.35	
CCOC(=O)C(NC(=O)CC)(N1CCN(c2cc3c(cc2F)c(=O)c(C(=O)O)cn3C2CC2)CC1)C(F)(F)F (stereo unspecified)	< 3.70	3.90	
O=c1[nH]c2cc3[nH]c(=O)c(=O)[nH]c3cc2[nH]c1=O	< 3.70	< 3.70	
Cc1cn(CCCCCCOC(=O)NC(CCCN=C(N)N)C(=O)O)c(=O)[nH]c1=O (stereo unspecified)	< 3.70	< 3.70	
COc1cc(O)c2c(c1)C(=O)c1cc3c(c(O)c1C2=O)C(OC1OC(C)C(O)C(O)C1OC)C(OC)C(C)(O)C3=O (stereo unspecified)	< 3.70	5.50	
NC(=S)N/N=C(\Cc1nc2ccc(Cl)cc2[nH]c1=O)C(=O)Nc1ccc(Cl)cc1	< 4.38	< 4.38	
CN(CCNC(=O)c1cc(-c2ccccc2)nc2ccccc12)CCNC(=O)c1cc(-c2ccccc2)nc2ccccc12	< 4.70	4.98	
N#Cc1nc(-c2ccc(-c3nc(C#N)c(N)o3)cc2)oc1N	< 3.70	< 3.70	
O=[N+]([O-])/N=c1/nc2scc(-c3ccc([N+](=O)[O-])cc3)n2s1	< 3.70	4.53	
CC(=O)N1C(=N)SCC1C(N)=O (stereo unspecified)	3.37	3.32	
c1ccc(CSc2ccc3nncc(SCc4ccccc4)c3c2)cc1	< 4.24	< 4.24	
CN(C)CCNC(=O)C(C)(C)Oc1ccc(C(=O)c2ccc(Cl)cc2)cc1Cl	< 3.70	5.02	

SMILES	pEC50	pIC50	outcome
CCOC(=O)C1(C(=O)OCC)C(C(C)(C)C)=C(C)c2ccccc21	< 4.30	4.69	
Cc1cc(=O)oc2cc(N(C)C)ccc12	< 4.17	4.43	
COc1ccccc1CC1(O)OC(=O)c2ccccc21 (stereo unspecified)	< 3.70	< 3.70	
CN(C)CC1CCCC(CN(C)C)C1=NO (stereo unspecified)			inactive
COC(=O)c1cccc(COC(=O)c2cc(C(=CCC[C@H]3CC[C@@]4(C)[C@@H](CC[C@@H]5[C@@H]4CC[C@]4(C)[C@@H]([C@H](C)CCCC(C)C)CC[C@@H]54)C3)c3cc(Cl)c(OCc4cccc(C(=O)OC)c4)c(C(=O)OCc4cccc(C(=O)OC)c4)c3)cc(Cl)c2OCc2cccc(C(=O)OC)c2)c1	< 3.70	< 3.70	
COc1cc2nncc(SCc3ccccc3Cl)c2cc1OC	5.84	4.29	
CC/C(Cl)=N\OC(=O)Nc1ccc(F)c([N+](=O)[O-])c1	< 3.70	5.55	
Cn1nc(-c2ccccc2)c2c(/C=C/c3ccccc3)onc2c1=O			inactive
NC(N)=N/N=C/c1oc(-c2ccc(S(=O)(=O)O)o2)c(-c2ccc(S(=O)(=O)O)o2)c1[N+](=O)[O-]	< 3.29	< 3.29	
c1ccc2c3csccc-3nc2c1	< 3.70	4.01	
CCOC(=O)C(/C=N/C(N)=S)=C(/O)c1ccccc1	< 3.70	< 3.70	
N#Cc1ccc(/C=C/C(=O)c2ccccc2)cc1	< 4.51	4.84	
O=S(=O)(Nc1ccccc1Cl)c1ccccc1	< 3.70	4.08	
N#C/C(=C/NC(N)=S)C(N)=O	< 3.70	< 3.70	
CN(/N=C/c1ccccn1)C1=NCCCCN1	< 3.70	< 3.70	
CCOC(=O)c1nc2ccc(Cl)cc2c2c1Cc1ccccc1-2	< 4.70	< 4.70	
COc1ccccc1C1SCc2nc3ccccc3n21 (stereo unspecified)	< 4.04	4.44	
CC1CCC(C(C)C)C(OC(=O)NCn2cc(-c3ccccc3)nn2)C1 (stereo unspecified)	< 3.70	< 3.70	
CC1=C(C)C2(OC1=O)C(O)C(C)[C@]1(O)CCC3C4CC=C5CC=CC(=O)[C@]5(C)C4C[C@@]2(O)[C@@]31C (stereo partly specified)			inactive
COC1NC(=O)Oc2c(F)cccc21 (stereo unspecified)			inactive
CC(C)Oc1cc2c(c3oc(=O)cc(CCl)c13)C(=O)[C@H](C)[C@@H](C)O2	< 3.70	5.27	
